Legend:
full-length Tau = full-length Tau (Homo sapiens, UniProt P10636); conditions: for maximum inhibition of full-length Tau aggregation: 0.05 and 0.1 mg/mL complex
Method: Tau was induced to aggregate as described previously with certain modifications. In presence heparin (17,500 Da) in the ratio of 4:1, Tau was polymerized in assembly buffer containing 20 mM BES. pH 7.4, 25 mM NaCl, 1 mM DTT, 0.01% NaN3 and protease inhibitor cocktails. The reaction mixture was incubated at 37° C. and the aggregates formation was monitored by ThS fluorescence, SDS-PAGE and TEM at certain time intervals. The Tau protein was allowed to assemble in presence and absence of compounds in increasing concentrations with constant Tau concentrations of 0.91 mg/mL and 0.28 mg/mL for full-length and four repeat Tau respectively. The changes in the conformation of Tau protein was monitored by CD spectroscopy.
(§1) Thioflavin S fluorescence assay: 5 μl of reaction mixture was diluted with 8 μM ThS in 50 mM ammonium acetate, pH 7.4 and added to 384 well plates in triplicates. Subsequently blank was also prepared for subtracting background fluorescence. The plate was incubated in the dark before measuring ThS fluorescence for 20 minutes, at an emission wavelength of 521 nm by exciting it at 440 nm in Tecan Infinite 200 PRO multimode microplate reader.

[1] = target: full-length Tau aggregates (Homo sapiens, UniProt P10636); conditions: highest concentration (range 0.01 mg/mL to 0.1 mg/mL); ThS fluorescence
Sequence of full-length Tau aggregates (P10636 1-441 isoform P10636-8): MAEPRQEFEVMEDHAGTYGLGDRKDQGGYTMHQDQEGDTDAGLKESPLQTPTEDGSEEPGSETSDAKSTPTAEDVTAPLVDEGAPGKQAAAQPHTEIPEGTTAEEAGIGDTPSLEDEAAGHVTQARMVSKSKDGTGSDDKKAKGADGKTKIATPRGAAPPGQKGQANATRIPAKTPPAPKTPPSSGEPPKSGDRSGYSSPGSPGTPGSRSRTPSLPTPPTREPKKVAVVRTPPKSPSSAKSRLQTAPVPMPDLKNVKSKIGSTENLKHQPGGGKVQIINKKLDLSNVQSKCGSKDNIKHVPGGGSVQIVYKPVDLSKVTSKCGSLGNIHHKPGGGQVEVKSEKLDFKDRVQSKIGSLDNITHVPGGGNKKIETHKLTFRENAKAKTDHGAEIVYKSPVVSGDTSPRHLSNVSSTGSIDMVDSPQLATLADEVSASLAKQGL
Method: (§2) Disaggregation assay: The potency of the metal complexes for disaggregating the preformed Tau aggregates was also analysed. Soluble Tau was dissolved in assembly buffer and was incubated at 37° C. for PHF assembly. The formation of aggregates was analysed by fluorescence assay and SDS-PAGE. Thus formed aggregates were diluted to 0.91 mg/mL final concentration in 20 mM BES buffer, pH 7.4 and this mixture was incubated with increasing concentration of metal complex as discussed earlier.
as §1

Tau PHFs = Tau PHFs (Homo sapiens, UniProt P10636); conditions: for Tau disaggregation by TEM: 0 hour; for Tau PHF disaggregation by TEM: prolonged incubation
Sequence of Tau PHFs (P10636 1-441 isoform P10636-8): as above
Method: as §2
Transmission Electron Microscopy (TEM): The degree of aggregates formation in presence of the metal complexes was analysed by TEM (Tecnai T-20). The assay mixture was diluted to 1 μM final concentration and spotted on the carbon coated copper grids. This was further stained by 2% uranyl acetate to observe the morphology of aggregates under TEM.

[2] = heparin as inducer, ThS fluorescence

Sequence of full-length Tau (P10636 1-441 isoform P10636-8): as above

Compound | inhibition rate of full-length Tau aggregation (full-length Tau; highest concentration of 0.1 mg/mL, heparin as inducer, ThS fluorescence) | disaggregation of full-length Tau aggregates [1] | Tau disaggregation by TEM (Tau PHFs) | Tau PHF disaggregation by TEM (Tau PHFs) | maximum inhibition of full-length Tau aggregation (full-length Tau; [2]) | effectiveness in inhibiting aggregation compared between complexes (full-length Tau; lower concentration)
Cobalt(II)(2,6-bis(piperazin-1-ylmethyl)pyridine)chloride [L1] | 97% | 74% | very negligible effect | destructed into shorter filaments |  | 
Cobalt(II)(2,6-bis((4-methylpiperazin-1-yl)methyl)pyridine)chloride [L3] |  | 77% | very negligible effect | destructed into shorter filaments | about 97% | 
[Cl][Co][Cl].c1cc(CN2CCOCC2)nc(CN2CCOCC2)c1 [L2, Cobalt(II)(2,6-bis(morpholinomethyl)pyridine)chloride] |  | 72% | very negligible effect | destructed into shorter filaments | about 97% | more effective in comparison with L1 and L3

Reference: patent publication US11040994B2, “Cobalt complexes, process for preparation and use thereof” (COUNCIL OF SCIENTIFIC AND INDUSTRIAL RESEARCH, priority 2017, dated 2021)
